# Read-outs that look alike come from different tables or passages of the source.
# Key:
# SARS-CoV-2 = experiment: Inhibitory activity of cytopathic effect (CPE) in HEK293T/ACE2-TMPRSS2 cells; type: cell-based; conditions: Severe acute respiratory syndrome coronavirus 2, HEK-293T, 72 h
# SARS-CoV-2 3CL protease = SARS-CoV-2 3CL protease (Severe acute respiratory syndrome coronavirus 2, UniProt P0DTD1); experiment: Inhibitory activity test against SARS-CoV-2 3CL proteases; type: biochemical
# [1] = 50% SARS-CoV-2 infected cell death inhibitory concentration, HEK293T/ACE2-TMPRSS2 cells, CellTiter-Glo 2.0 after 3 days culture, read-out: EC50
# [2] = read-out: IC50 (50% SARS-CoV-2 3CL protease inhibitory concentration)
# [3] = HEK293T/ACE2-TMPRSS2 cells, cultured 3 days, CellTiter-Glo 2.0 luminescence, read-out: EC50 (50% SARS-CoV-2 infected cell death inhibitory concentration)
# [4] = IC50 (50% SARS-CoV-2 3CL protease inhibitory concentration)
SMILES,IC50 (SARS-CoV-2 3CL protease; [2]),EC50 (SARS-CoV-2; [3]),other results
COc1nc(NC(C)C)cc2c1c(=O)n(-c1cnc3cc(F)ccn13)c(=O)n2-c1ccc(F)c(Cl)c1 [Compound I-0651],8.5 nM,,EC50 (SARS-CoV-2; [1]): 13 nM
Cn1cnc(Cn2c(=O)c3c(cc(-c4cc(C#N)ccc4Cl)n4c(=O)[nH]nc34)n(Cc3cc(F)c(F)c(F)c3)c2=O)n1 [Compound I-0647],5.7 nM,,EC50 (SARS-CoV-2; [1]): 13900 nM
COC[C@@H]1CCN(c2cc3c(c(OC)n2)c(=O)n(-c2cnc4cc(F)ccn24)c(=O)n3-c2ccc(F)c(Cl)c2)C1 [Compound I-1033],< 100 nM,< 100 nM,
[2H]C([2H])([2H])O[C@@H]1CCN(c2cc3c(c(OC)n2)c(=O)n(-c2cncc(C#N)c2)c(=O)n3-c2ccc(F)c(Cl)c2)C1 [Compound I-0948],< 100 nM,< 100 nM,
COc1ccc(Cl)c(-c2cc(OC)c3c(=O)n(Cc4ncn(C)n4)c(=O)n(Cc4cc(F)c(F)c(F)c4)c3c2)c1F [Compound I-0557],< 100 nM,100 to 1000 nM,
COc1cc(-c2cc([C@@H](C)O)ccc2Cl)cc2c1c(=O)n(Cc1ncn(C)n1)c(=O)n2Cc1cc(F)c(F)c(F)c1 [Compound I-0839],< 100 nM,100 to 1000 nM,
COc1nc2c(=O)n(Cc3ncn(C)n3)c(=O)n(Cc3cc(F)c(F)c(C#N)c3)c2cc1-c1cc(C#N)ccc1Cl [Compound I-0721],< 100 nM,< 100 nM,
COc1nc2c(=O)n(Cc3ncn(C)n3)c(=O)n(Cc3cc(Cl)cc(Cl)c3)c2cc1-c1cc(C#N)ccc1Cl [Compound I-0550],< 100 nM,< 100 nM,
CCOc1nc2c(=O)n(Cc3ncn(C)n3)c(=O)n(Cc3cc(F)c(F)c(F)c3)c2cc1-c1cc(C#N)ccc1Cl [Compound I-0692],< 100 nM,< 100 nM,
COc1nc(N2CC[C@@H](NC(C)=O)C2)cc2c1c(=O)n(-c1cnc3cc(F)ccn13)c(=O)n2-c1ccc(F)c(Cl)c1 [Compound I-1031],< 100 nM,100 to 1000 nM,
COc1nc(N2CC[C@@H](C(=O)N3CCOCC3)C2)cc2c1c(=O)n(-c1cnc3cc(F)ccn13)c(=O)n2-c1ccc(F)c(Cl)c1 [Compound I-0627],< 100 nM,< 100 nM,
CCn1c(-c2cc(C#N)ccc2Cl)cc2c(c1=O)c(=O)n(-c1cnc3cc(F)ccn13)c(=O)n2Cc1cc(F)c(F)c(F)c1 [Compound I-0739],0.98 nM,,EC50 (SARS-CoV-2; [1]): 115 nM
COc1nc(N2CC[C@@H](O)C2)cc2c1c(=O)n(-c1cnc3cc(F)ccn13)c(=O)n2Cc1cc(F)c(F)c(F)c1 [Compound I-0730],< 100 nM,< 100 nM,
Cn1cnc(Cn2c(=O)c3c(=O)n(C)c(N4CCC(F)(F)C4)cc3n(Cc3cc(F)c(F)c(Cl)c3)c2=O)n1 [Compound I-0931],< 100 nM,100 to 1000 nM,
COc1nc(-c2cc(C#N)ccc2Cl)cc2c1c(=O)n(-c1cnc3ccccn13)c(=O)n2Cc1ccc(F)c(C#N)c1 [Compound I-0842],34 nM,,EC50 (SARS-CoV-2; [1]): 88.2 nM
COc1nc(N2CC[C@@H](F)C2)cc2c1c(=O)n(-c1cnc3cc(F)ccn13)c(=O)n2Cc1cc(F)c(F)c(F)c1 [Compound I-0673],< 100 nM,< 100 nM,
COc1nc2c(=O)n(Cc3ncn(C)n3)c(=O)n(Cc3cc(F)c(F)c(Cl)c3)c2cc1-c1nc(C)ccc1Cl [Compound I-0579],5.8 nM,,EC50 (SARS-CoV-2; [1]): 12.1 nM
CCOc1nc2cc(-c3cc(OC)c4c(=O)n(Cc5ncn(C)n5)c(=O)n(Cc5cc(F)c(F)c(F)c5)c4c3)c(Cl)cc2[nH]1 [Compound I-0852],< 100 nM,100 to 1000 nM,
COc1ccc(Cl)c(-c2cc(OC)c3c(=O)n(Cc4ncn(C)n4)c(=O)n(Cc4cc(F)c(F)c(F)c4)c3c2)n1 [Compound I-0895],< 100 nM,100 to 1000 nM,
COc1nc(N2CCC(F)(F)C2)cc2c1c(=O)n(-c1cncc(C)n1)c(=O)n2-c1ccc(F)c(Cl)c1 [Compound I-0997],< 100 nM,< 100 nM,
COc1cc(-c2nc(C)ccc2Cl)cc2c1c(=O)n(Cc1ncn(C)n1)c(=O)n2Cc1cc(F)c(F)c(F)c1 [Compound I-0826],< 100 nM,< 100 nM,
COc1nc(N2[C@@H]3CC[C@H]2CNC3)cc2c1c(=O)n(-c1cnc3ccc(Cl)cn13)c(=O)n2-c1ccc(F)c(Cl)c1 [Compound I-0806],,,EC50 (SARS-CoV-2): 25.1 nM; IC50 (SARS-CoV-2 3CL protease; [4]): 3.9 nM
[2H]C([2H])([2H])O[C@@H]1CCN(c2cc3c(c(OC)n2)c(=O)n(-c2cnc4cc(F)ccn24)c(=O)n3-c2ccc(F)c(F)c2)C1 [Compound I-1005],8.9 nM,,EC50 (SARS-CoV-2; [1]): 8.65 nM
COc1nc(N2CC[C@@H](C#N)C2)cc2c1c(=O)n(Cc1ncn(C)n1)c(=O)n2Cc1cc(F)c(F)c(F)c1 [Compound I-0598],18 nM,,EC50 (SARS-CoV-2; [1]): 13.6 nM
COc1nc2c(=O)n(Cc3ncn(C)n3)c(=O)n(Cc3cc(F)c(F)c(Cl)c3)c2cc1-c1cc(C(C)(C)O)ccc1Cl [Compound I-0701],5 nM,,EC50 (SARS-CoV-2; [1]): 16 nM

SMILES,IC50 (SARS-CoV-2 3CL protease; [2]),EC50 (SARS-CoV-2; [3]),other results
COc1nc(N2[C@@H]3CC[C@H]2CNC3)cc2c1c(=O)n(-c1cnc3ccc(Cl)cn13)c(=O)n2Cc1cc(Cl)ccc1Cl [Compound I-0649],,,EC50 (SARS-CoV-2; read-out: EC50 (50% SARS-CoV-2 infected cell death inhibitory concentration)): < 100 nM; IC50 (SARS-CoV-2 3CL protease; [4]): < 100 nM
[2H]C([2H])([2H])O[C@@H]1CCN(c2cc3c(c(OC)n2)c(=O)n(-c2cncc(F)c2)c(=O)n3-c2ccc(F)c(Cl)c2)C1 [Compound I-0953],< 100 nM,< 100 nM,
COc1nc(N2CCC(F)(F)C2)cc2c1c(=O)n(-c1cnc3cc(F)ccn13)c(=O)n2-c1ccc(F)c(C(F)F)c1 [Compound I-1015],< 100 nM,< 100 nM,
Cn1cnc(Cn2c(=O)c3c(cc(-c4cc(C#N)ccc4Cl)c[n+]3[O-])n(Cc3cc(F)c(F)c(F)c3)c2=O)n1 [Compound I-0697],100 to 1000 nM,1000 to 10000 nM,
COc1nc(N2C[C@H](F)[C@@H](F)C2)cc2c1c(=O)n(-c1cnc3cc(F)ccn13)c(=O)n2-c1ccc(F)c(Cl)c1 [Compound I-0748],< 100 nM,< 100 nM,
[2H]C([2H])([2H])O[C@@H]1CCN(c2cc3c(c(OC)n2)c(=O)n(-c2cncc(OCF)c2)c(=O)n3-c2ccc(F)c(F)c2)C1 [Compound I-1012],< 100 nM,< 100 nM,
Cn1cnc(Cn2c(=O)c3c4nc[nH]c4c(-c4cc(C#N)ccc4Cl)cc3n(Cc3cc(F)c(F)c(F)c3)c2=O)n1 [Compound I-0712],100 to 1000 nM,100 to 1000 nM,
CNc1cc2c(c(OC)n1)c(=O)n(-c1cnc3cc(F)ccn13)c(=O)n2-c1ccc(F)c(Cl)c1 [Compound I-1042],< 100 nM,< 100 nM,
CC(C)Nc1cc2c(c(=O)n(Cc3ncn(C)n3)c(=O)n2Cc2cc(F)c(F)c(Cl)c2)c2nccnc12 [Compound I-0575],< 100 nM,< 100 nM,
COc1nc(N(C)C)cc2c1c(=O)n(-c1cnc3cc(F)ccn13)c(=O)n2-c1ccc(F)c(Cl)c1 [Compound I-0986],6.5 nM,,EC50 (SARS-CoV-2; [1]): 7.1 nM
COc1nc(N2CC[C@@H](O)C2)cc2c1c(=O)n(-c1cncc(C#N)c1)c(=O)n2-c1ccc(F)c(F)c1 [Compound I-1027],< 100 nM,< 100 nM,
COc1nc(N2C[C@H]3C[C@@H]2CO3)cc2c1c(=O)n(-c1cnc3cc(F)ccn13)c(=O)n2-c1ccc(F)c(Cl)c1 [Compound I-0989],< 100 nM,< 100 nM,
COc1nc(N2CC[C@@H](C(F)F)C2)cc2c1c(=O)n(-c1cnc3cc(F)ccn13)c(=O)n2-c1ccc(F)c(Cl)c1 [Compound I-0983],< 100 nM,< 100 nM,
Cn1cnc(Cn2c(=O)c3c4nccnc4c(N4CC[C@@H](O)C4)cc3n(Cc3cc(F)c(F)c(F)c3)c2=O)n1 (racemic) [Compound I-0552],< 100 nM,100 to 1000 nM,
COc1nc2c(=O)n(Cc3ncn(C)n3)c(=O)n(Cc3cc(Cl)c(F)cc3C)c2cc1-c1nc(C)ccc1Cl [Compound I-0581],< 100 nM,< 100 nM,
COc1nc(N2CC[C@@H](NC(C)=O)C2)cc2c1c(=O)n(-c1cncc(Cl)c1)c(=O)n2-c1ccc(F)c(Cl)c1 [Compound I-0994],< 100 nM,< 100 nM,
COc1nc(N2CCC(F)(F)C2)cc2c1c(=O)n(-c1cnc3cc(F)ccn13)c(=O)n2-c1ccc(F)c(Cl)c1 [Compound I-0728],5.1 nM,,EC50 (SARS-CoV-2; [1]): 7.65 nM
COc1cc(-c2cc(C#N)ccc2Cl)cc2c1c(=O)n(-c1cnc3ccccn13)c(=O)n2Cc1cc(F)c(F)c(F)c1 [Compound I-0660],< 100 nM,< 100 nM,
CCn1cnc(Cn2c(=O)c3c(OC)nc(N4CC[C@@H](F)C4)cc3n(Cc3cc(F)c(F)c(F)c3)c2=O)n1 [Compound I-0927],< 100 nM,< 100 nM,
COc1cc(-c2ncc(F)cc2Cl)cc2c1c(=O)n(Cc1ncn(C)n1)c(=O)n2Cc1cc(F)c(F)c(F)c1 [Compound I-0827],< 100 nM,100 to 1000 nM,
COc1nc(N2CCC(N(C)C)C2)cc2c1c(=O)n(-c1cnc3cc(F)ccn13)c(=O)n2-c1ccc(F)c(Cl)c1 (centres unmarked) [Compound I-1055],< 100 nM,< 100 nM,
COc1nc(N2CCC(N(C)C)C2)cc2c1c(=O)n(-c1cncc(Cl)c1)c(=O)n2-c1ccc(F)c(Cl)c1 (centres unmarked) [Compound I-1022],< 100 nM,< 100 nM,
COc1cc(-c2cc([C@H](C)O)ccc2Cl)cc2c1c(=O)n(Cc1ncn(C)n1)c(=O)n2Cc1cc(F)c(F)c(F)c1 [Compound I-0840],< 100 nM,< 100 nM,
Cn1cnc(Cn2c(=O)c3c(F)c(C4CC4)c(-c4cc(C#N)ccc4Cl)cc3n(Cc3cc(F)c(F)c(Cl)c3)c2=O)n1 [Compound I-0638],< 100 nM,< 100 nM,

# From patent US20240400560A1, “BICYCLIC HETEROCYCLIC DERIVATIVE HAVING VIRAL GROWTH INHIBITORY ACTIVITY AND PHARMACEUTICAL COMPOSITION CONTAINING SAME” (Shionogi & Co., Ltd., priority 2021, published 2024)
